From ChEMBL document CHEMBL4680076, “Hydraphiles enhance antimicrobial potency against Escherichia coli, Pseudomonas aeruginosa, and Bacillus subtilis” (2016)
≈ marks a conversion by molar mass, not a printed value. Blank lines part the entries; values can stand above or below the molecule they belong to. Calls of active or inactive are those of the source. The calls are words filed in the database; no cut-off is given here.

Key:
Pseudomonas aeruginosa [1] = assay: Antimicrobial activity against Pseudomonas aeruginosa assessed as inhibition of bacterial growth incubated for overnight by CLSI method; format: functional
Escherichia coli [2] = assay: Antimicrobial activity against Escherichia coli DH5alpha assessed as inhibition of bacterial growth incubated for overnight by CLSI method; format: functional; details: DH5[alpha]
Pseudomonas aeruginosa [3] = assay: Synergistic antimicrobial activity against Pseudomonas aeruginosa assessed as fold enhancement in erythromycin potency at 1 uM incubated for overnight by CLSI method; format: functional
Pseudomonas aeruginosa [4] = assay: Synergistic antimicrobial activity against Pseudomonas aeruginosa assessed as fold enhancement in erythromycin potency at 0.5 uM incubated for overnight by CLSI method; format: functional
Pseudomonas aeruginosa [5] = assay: Synergistic antimicrobial activity against Pseudomonas aeruginosa assessed as fold enhancement in tetracycline potency at 0.5 uM incubated for overnight by CLSI method; format: functional
Escherichia coli [6] = assay: Synergistic antimicrobial activity against Escherichia coli K-12 assessed as fold enhancement in rifampicin potency at 0.6 uM incubated for overnight by CLSI method; format: functional
Escherichia coli [7] = assay: Synergistic antimicrobial activity against Escherichia coli K-12 assessed as fold enhancement in tetracycline potency at 1.25 uM incubated for overnight by CLSI method; format: functional
Escherichia coli [8] = assay: Synergistic antimicrobial activity against Escherichia coli K-12 assessed as enhancement in rifampicin potency at 2.5 uM; format: functional, organism-based
Escherichia coli [9] = assay: Synergistic antimicrobial activity against Escherichia coli K-12 assessed as fold enhancement in erythromycin potency at 0.6 uM incubated for overnight by CLSI method; format: functional
Bacillus subtilis [10] = assay: Synergistic antimicrobial activity against Bacillus subtilis assessed as fold enhancement in tetracyclin potency at 0.12 uM incubated for overnight by CLSI method; format: functional
Pseudomonas aeruginosa [11] = assay: Synergistic antimicrobial activity against Pseudomonas aeruginosa assessed as fold enhancement in tetracycline potency at 1 uM incubated for overnight by CLSI method; format: functional
Bacillus subtilis [12] = assay: Antimicrobial activity against Bacillus subtilis assessed as inhibition of bacterial growth incubated for overnight by CLSI method; format: functional
Escherichia coli [13] = assay: Antimicrobial activity against Escherichia coli K-12 assessed as inhibition of bacterial growth incubated for overnight by CLSI method; format: functional
Escherichia coli [14] = assay: Growth inhibition of Escherichia coli DH5alpha at half MIC measured every 15 mins for 12 hrs; format: functional, organism-based; details: DH5[alpha]
Escherichia coli [15] = assay: Synergistic antimicrobial activity against Escherichia coli K-12 assessed as fold enhancement in tetracycline potency at 0.6 uM incubated for overnight by CLSI method; format: functional
Escherichia coli [16] = assay: Growth inhibition of Escherichia coli DH5alpha at half MIC measured every 15 mins for 12 hrs in presence of 25 uM erythromycin; format: functional, organism-based; details: DH5[alpha]
Pseudomonas aeruginosa [17] = assay: Synergistic antimicrobial activity against Pseudomonas aeruginosa assessed as fold enhancement in rifampicin potency at 0.5 uM incubated for overnight by CLSI method; format: functional
Escherichia coli [18] = assay: Synergistic antimicrobial activity against Escherichia coli K-12 assessed as fold enhancement in kanamycin potency at 1.25 uM incubated for overnight by CLSI method; format: functional
Escherichia coli [19] = assay: Synergistic antimicrobial activity against Escherichia coli K-12 assessed as fold enhancement in rifampicin potency at 1.25 uM incubated for overnight by CLSI method; format: functional
Pseudomonas aeruginosa [20] = assay: Synergistic antimicrobial activity against Pseudomonas aeruginosa assessed as fold enhancement in rifampicin potency at 1 uM incubated for overnight by CLSI method; format: functional
Escherichia coli [21] = assay: Synergistic antimicrobial activity against Escherichia coli K-12 assessed as fold enhancement in erythromycin potency at 1.25 uM incubated for overnight by CLSI method; format: functional
Bacillus subtilis [22] = assay: Synergistic antimicrobial activity against Bacillus subtilis assessed as fold enhancement in erythromycin potency at 0.12 uM incubated for overnight by CLSI method; format: functional
Escherichia coli [23] = assay: Synergistic antimicrobial activity against Escherichia coli K-12 assessed as fold enhancement in kanamycin potency at 0.6 uM incubated for overnight by CLSI method; format: functional, organism-based
[24] = Synergistic antimicrobial activity against Escherichia coli DH5alpha assessed as fold enhancement in erythromycin potency at 75 uM incubated for overnight by CLSI method; format: functional, K-12
Escherichia coli [25] = assay: Synergistic antimicrobial activity against Escherichia coli DH5alpha assessed as fold enhancement in rifampicin potency at 75 uM incubated for overnight by CLSI method; format: functional, DH5[alpha]
Escherichia coli [26] = assay: Synergistic antimicrobial activity against Escherichia coli DH5alpha assessed as fold enhancement in tetracycline potency at 75 uM incubated for overnight by CLSI method; format: functional, DH5[alpha]
Escherichia coli [27] = assay: Synergistic antimicrobial activity against Escherichia coli DH5alpha assessed as fold enhancement in kanamycin potency at 150 uM incubated for overnight by CLSI method; format: functional, DH5[alpha]
Escherichia coli [28] = assay: Synergistic antimicrobial activity against Escherichia coli DH5alpha assessed as fold enhancement in tetracycline potency at 150 uM incubated for overnight by CLSI method; format: functional, DH5[alpha]
Escherichia coli [29] = assay: Synergistic antimicrobial activity against Escherichia coli DH5alpha assessed as fold enhancement in kanamycin potency at 75 uM incubated for overnight by CLSI method; format: functional, DH5[alpha]
Escherichia coli [30] = assay: Synergistic antimicrobial activity against Escherichia coli DH5alpha assessed as fold enhancement in rifampicin potency at 150 uM incubated for overnight by CLSI method; format: functional, DH5[alpha]
Escherichia coli [31] = assay: Synergistic antimicrobial activity against Escherichia coli DH5alpha assessed as fold enhancement in erythromycin potency at 150 uM incubated for overnight by CLSI method; format: functional, DH5[alpha]
Escherichia coli [32] = assay: Growth inhibition of Escherichia coli DH5alpha at 50 uM measured every 15 mins for 12 hrs; format: functional, organism-based; details: DH5[alpha]
Escherichia coli [33] = assay: Growth inhibition of Escherichia coli DH5alpha at 25 uM measured every 15 mins for 12 hrs; format: functional, organism-based; details: DH5[alpha]

SMILES: c1ccc(CN2CCOCCOCCN(CCCCCCCCN3CCOCCOCCN(CCCCCCCCN4CCOCCOCCN(Cc5ccccc5)CCOCCOCC4)CCOCCOCC3)CCOCCOCC2)cc1
fold change (FC) [24]: 8
Activity (Escherichia coli [8]): inactive
MIC (Escherichia coli [2]): 300 µM (≈ 356 µg/mL)
fold change (FC) (Escherichia coli [25]): 18
MIC (Escherichia coli [13]): 200 µM (≈ 238 µg/mL)
fold change (FC) (Escherichia coli [26]): 2
fold change (FC) (Escherichia coli [27]): 3
fold change (FC) (Escherichia coli [28]): 5
fold change (FC) (Escherichia coli [29]): 2
fold change (FC) (Escherichia coli [30]): 18
fold change (FC) (Escherichia coli [31]): 13

SMILES: CC[C@H]1OC(=O)[C@H](C)[C@@H](O[C@H]2C[C@@](C)(OC)[C@@H](O)[C@H](C)O2)[C@H](C)[C@@H](O[C@@H]2O[C@H](C)C[C@H](N(C)C)[C@H]2O)[C@](C)(O)C[C@@H](C)C(=O)[C@H](C)[C@@H](O)[C@]1(C)O [ERYTHROMYCIN]
MIC (Pseudomonas aeruginosa [1]): 200 µM (≈ 147 µg/mL)
MIC (Escherichia coli [2]): 200 µM (≈ 147 µg/mL)
MIC (Bacillus subtilis [12]): 0.3 µM (≈ 0.22 µg/mL)
MIC (Escherichia coli [13]): 700 µM (≈ 514 µg/mL)
growth inhibition (GI) (Escherichia coli [32]): Active
growth inhibition (GI) (Escherichia coli [33]): inactive

SMILES: CO[C@H]1/C=C/O[C@@]2(C)Oc3c(C)c(O)c4c(O)c(c(/C=N/N5CCN(C)CC5)c(O)c4c3C2=O)NC(=O)/C(C)=C\C=C\[C@H](C)[C@H](O)[C@@H](C)[C@@H](O)[C@@H](C)[C@H](OC(C)=O)[C@@H]1C [RIFAMPIN]
MIC (Pseudomonas aeruginosa [1]): 25 µM (≈ 20.6 µg/mL)
MIC (Escherichia coli [2]): 55 µM (≈ 45.3 µg/mL)
MIC (Escherichia coli [13]): 16 µM (≈ 13.2 µg/mL)

SMILES: CN(C)[C@@H]1C(O)=C(C(N)=O)C(=O)[C@@]2(O)C(O)=C3C(=O)c4c(O)cccc4[C@@](C)(O)[C@H]3C[C@@H]12 [TETRACYCLINE]
MIC (Pseudomonas aeruginosa [1]): 12 µM (≈ 5.33 µg/mL)
MIC (Escherichia coli [2]): 5 µM (≈ 2.22 µg/mL)
MIC (Bacillus subtilis [12]): 3 µM (≈ 1.33 µg/mL)
MIC (Escherichia coli [13]): 5 µM (≈ 2.22 µg/mL)

Second part, led by results:

MIC (Pseudomonas aeruginosa [1]): 2 µM (≈ 2.82 µg/mL)
MIC (Escherichia coli [2]): 4 µM (≈ 5.65 µg/mL)
SMILES: c1ccc(CN2CCOCCOCCN(CCCCCCCCCCCCCCCCN3CCOCCOCCN(CCCCCCCCCCCCCCCCN4CCOCCOCCN(Cc5ccccc5)CCOCCOCC4)CCOCCOCC3)CCOCCOCC2)cc1
fold change (FC) (Pseudomonas aeruginosa [3]): 8
fold change (FC) (Pseudomonas aeruginosa [4]): 4

MIC (Pseudomonas aeruginosa [1]): 2 µM (≈ 2.71 µg/mL)
MIC (Escherichia coli [2]): 2 µM (≈ 2.71 µg/mL)
MIC (Bacillus subtilis [12]): 0.5 µM (≈ 0.678 µg/mL)
MIC (Escherichia coli [13]): 2.5 µM (≈ 3.39 µg/mL)
SMILES: c1ccc(CN2CCOCCOCCN(CCCCCCCCCCCCCCN3CCOCCOCCN(CCCCCCCCCCCCCCN4CCOCCOCCN(Cc5ccccc5)CCOCCOCC4)CCOCCOCC3)CCOCCOCC2)cc1
fold change (FC) (Pseudomonas aeruginosa [5]): 2
fold change (FC) (Escherichia coli [6]): 4
fold change (FC) (Escherichia coli [7]): 5
Activity (Escherichia coli [8]): Active
fold change (FC) (Escherichia coli [9]): 2
fold change (FC) (Bacillus subtilis [10]): 2
fold change (FC) (Pseudomonas aeruginosa [3]): 8
fold change (FC) (Pseudomonas aeruginosa [11]): 4
growth inhibition (GI) (Escherichia coli [14]): inactive
fold change (FC) (Escherichia coli [15]): 2
growth inhibition (GI) (Escherichia coli [16]): Active
fold change (FC) (Pseudomonas aeruginosa [17]): 5
fold change (FC) (Escherichia coli [18]): 2
fold change (FC) (Escherichia coli [19]): 30
fold change (FC) (Pseudomonas aeruginosa [20]): 11
fold change (FC) (Escherichia coli [21]): 9
fold change (FC) (Bacillus subtilis [22]): 2
fold change (FC) (Escherichia coli [23]): inactive
fold change (FC) (Pseudomonas aeruginosa [4]): 4
